Data taken from US8099262B2, “Estimation of clinical cut-offs” (priority 2004, dated 2012).
Where two headings read alike, the source gives them in different places.

Tests used:
[1] = test system: HIV; format: in vivo
Excerpt: Further factors which may be taken into account when validating the model are the odds ratios determined using clinical cutoffs compared to those determined using biological cutoffs. These ratios represent the odds of being a responder in the group that is labeled resistant by the cutoffs divided by the odds of being a responder in the group that is labeled sensitive by the cutoffs. In this way it is possible to evaluate how well the cutoffs perform on a drug by drug basis. The further away that the odds ratio is from 1, the stronger the correlation between the resistance class and clinical outcome. The odds ratio as specified above yield numbers smaller than 1 as the odds of being a responder should be smaller in the higher resistance class. Put another way, the probability of response will decrease as the resistance increases. Additionally, if the odds ratio for the CCO is smaller than the odds ratio for the BCO, it can be concluded that the CCO is stronger correlated with clinical outcome and therefore gives a better prediction than the BCO.
(§1) A logistic regression model may be used to determine the odds ratio. The model used is the same as the logistic regression model described above except that the fold change in the model is replaced by the resistance class. The coefficient for the resistance class that is obtained from the model is the log (odds ratio). The advantage of using this model is that the odds ratio estimates can be adjusted for the baseline viral load and the cPSS score of the background regimen.
The columns headed CCO Odds Ratio and BCO Odds Ratio represent the odds of being a responder in the group that is labeled resistance by the cutoffs divided by the odds of being a responder in the group that is labeled sensitive by the cutoffs. For example, if there are four non-responders and one responder in the resistant group, and four responders and two non-responders in the sensitive group, the odds of being a responder in the resistant group is 1:4=0.25 and the odds of being a responder in the sensitive group is 4:2=2. […] The further away that the odds ratio is from 1, the stronger the correlation between the resistance class and clinical outcome.
The separation in groups (resistance/sensitive) can be done based on clinical cutoffs or biological cutoffs. This means that odds ratios based on clinical cutoffs (CCO) and odds ratios based on biological cutoffs (BCO) can be compared. If the odds ratio for the CCO is smaller than the odds ratio for the BCO, it can be concluded that the CCO gives a better prediction than the BCO.
as §1, with “In practice, a” for “A”, “is” for “may be”, “similar to” for “the same as the”, “earlier” for “above”, “regimen. […] In this case, a larger odds ratio indicates a stronger correlation with clinical outcome.” for “regimen.”

[2] = test system: HIV; format: in vivo; parameters: key to Modelled Lower Cutoff & Confidence Interval / Modelled Upper Cutoff & Confidence Interval: fold change (FC) matching VL drop at 20% and 80% loss of activity; settings: preferred embodiment of linear regression
Excerpt: In a preferred embodiment of the linear regression model, more factors are included in order to obtain a more refined prediction of viral load response. These factors include for example a sensitivity score per drug class in addition to the overall sensitivity score of the background treatment (cPSS), previous exposure to the drug (naïve (Yes/No), naïve to PIs, naïve to NRTI's, etc. . . . ). Furthermore, in the preferred embodiment, the fold change is transformed before inserting the figures into the model. The transformation to the fold change comprises a power-transformation ranging from FC^−3 to FC^1. In addition, a quadratic term in cPSS is preferably added.
The NRTI[naïve] value represents whether the patient is naïve to nucleoside RT inhibitors. If yes, value=1, if no, value=0. The PSS[NRTI} represents the phenotypic sensitivity score for NRTIs, i.e the number of active NRTIs in the background regimen for the patient.
Stage 3: Determine Fold change equivalent to VL drop at 20% and 80% loss of activity by inserting values for VL drop into the above equation and calculating FC. […]

[3] = test system: HIV; settings: Definition 3
Excerpt: This methodology constructs tree-structured rules in order to classify patients as successes (undetectable pathogen load after treatment) and failures. […] Imbalances for such parameters may therefore influence the decision taken for a certain parameter.
The classification tree poses queries, in which the answer to each query results in either the left or the right branch of the tree being taken at each stage. […] If yes, the left branch is taken, if no the right branch is taken. As with the methods of the aspects of the invention described previously, the other factors queried include the log baseline pathogen load and the phenotypic sensitivity score. The numbers at the termini of the final branches represent the response rate (1=100% response).
The clinical cut-off is chosen as the fold change that makes the difference between the two groups as large as possible.
In the classification trees model, tree-structured rules were constructed in order to classify patients in successes (undetectable viral load after treatment) and failures. The same parameters as for the other techniques were considered.
This implies that imbalances for other parameters may influence the decision taken for a certain parameter.
Definition 3 was a variant of definition 2.
Using definition 3, breakpoints determined by classification trees are applicable only to a subset of patients unless fold change is selected at the first tree node.

CC(C)OC(=O)OCOP(=O)(CO[C@H](C)Cn1cnc2c(N)ncnc21)OCOC(=O)OC(C)C.O=C(O)/C=C/C(=O)O [TDF]
Test Data BCO Odds Ratio ([1]; test data, biological cutoffs): 0.570 | Test Data CCO Odds Ratio ([1]; test data, clinical cutoffs): 0.228 | Validation Data CCO Odds Ratio ([1]; validation data, clinical cutoffs): 0.226 | Modelled Lower Cutoff & Confidence Interval [2]: 1.0 | Modelled Upper Cutoff & Confidence Interval [2]: 2.0 | Classification Tree Lower CO ([3]; Overall): 1.15 | Classification Tree Lower CO ([3]; Subgroup 1: PSS = 2, baseline Log (VL) = 4): 1.15 | Classification Tree Lower CO ([3]; Subgroup 2: PSS = 0, baseline Log (VL) = 4): 1.15 | Classification Tree Lower CO ([3]; Subgroup 3: PSS = 2, baseline Log (VL) = 5): 1.15
